Assay results taken from PMC9405102, “Targeted Modification and Structure-Activity Study of GL-29, an Analogue of the Antimicrobial Peptide Palustrin-2ISb” (Antibiotics, 2022).
Where two headings read alike, the source gives them in different places. Where no end group is shown, it is not given here.

Key:
E. faecalis (NCTC 12697) [1] = format: cell-based, Enterococcus faecalis
Description: (§1) The antimicrobial activity of the peptides was determined through the minimum inhibitory concentrations (MICs) and the minimum bactericidal concentration (MBCs) using the broth-dilution method in a 96-well plate, as described in the previous study. Six bacteria, including the Gram-positive bacteria, S. aureus (ATCC CRM 6538), MRSA (ATCC CRM 12493) and E. faecalis (NCTC 12697), the Gram-negative bacteria, E. coli (ATCC CRM 8739), K. pneumoniae (ATCC CRM 43816) and P. aeruginosa (ATCC CRM 9027), the yeast, C. albicans (ATCC CRM 10231) and clinical isolates, S. aureus (B042 V2E1 A), MRSA (B038 V1S1 A), E. coli (ATCC BAA-2340) and K. pneumoniae (ATCC BAA-1705) were used in these assays to evaluate the antimicrobial potency of the two peptides by determining their MICs and MBCs. All bacteria were cultured in MHB and the yeast, C. albicans was cultured in YPD broth overnight. Then, the microorganisms were sub-cultured and diluted to the final concentration of 2 × 10^5 CFU/mL to 5 × 10^5 CFU/mL. The Norfloxacin and amphotericin B were used as positive controls for the bacteria and yeast, respectively. The assay was repeated three times, with five replicates at each time.

[2] = tested on: P. aeruginosa (ATCC CRM 9027); format: cell-based, Pseudomonas aeruginosa
Description: as §1

[3] = tested on: C. albicans (ATCC CRM 10231); format: cell-based, Candida albicans
Description: as §1

[4] = tested on: S. aureus (ATCC CRM 6538); format: cell-based, Staphylococcus aureus
Description: as §1

S. aureus (B042 V2E1 A) = format: cell-based, Staphylococcus aureus
Description: as §1

MRSA (ATCC CRM 12493) [5] = format: cell-based, methicillin-resistant S. aureus
Description: as §1

MRSA (B038 V1S1 A) = format: cell-based, methicillin-resistant S. aureus
Description: as §1

E. coli (ATCC BAA-2340) = format: cell-based, Escherichia coli
Description: as §1

E. coli (ATCC CRM 8739) [6] = format: cell-based, Escherichia coli
Description: as §1

[7] = tested on: K. pneumoniae (ATCC BAA-1705); format: cell-based, Klebsiella pneumoniae
Description: as §1

[8] = tested on: K. pneumoniae (ATCC CRM 43816); format: cell-based, Klebsiella pneumoniae
Description: as §1

[9] = tested on: S. aureus (ATCC CRM 6538); format: cell-based, Staphylococcus aureus; remark: listed apart in the source
Description: (§2) The MBIC and MBEC assays were performed to measure the inhibition and eradication of bacterial biofilm in the presence of different concentrations of peptides. Gram-positive bacteria were inoculated in Luria–Bertani (LB) broth at 37 °C overnight whereas Gram-negative bacteria were inoculated in tryptic soy broth (TSB), and then sub-cultured until reaching the logarithmic growth phase by measuring the OD values at a wavelength of 550nm. For the MBIC assay, 99 µL of diluted bacterial suspension (5 × 10^5 CFU/mL) was mixed with 1 µL of prepared peptide solutions in the wells of a round-bottomed 96-well plate, achieving the final concentrations from 512 to 1 µM, and then incubated at 37 °C for 24 h in a shaking incubator at 200 revolutions per minute (rpm). After this, the plate was washed twice by PBS and fixed with methanol for 30 min. For MBEC assay, 100 µL of diluted bacterial suspension (5 × 10^5 CFU/mL) was seeded into a round-bottomed 96-well plate and incubated at 37 °C for 24 h in a shaking incubator at 200 rpm to obtain mature biofilm. After this, plates were washed twice by PBS and incubated with different concentrations of peptide solution from 512 to 1 µM at 37 °C for 24 h. Afterwards, the plate was washed twice with PBS and fixed with methanol for 30 min. Then, both MBIC and MBEC plates were stained by 130 μL of 0.1% (g/v) crystal violet solutions for 30 min and washed with PBS until no apparent staining was observed. Evaporating crystal violet stains were dissolved by 33% (v/v) acetic acid, and the absorbance values were measured by a Synergy HT Microplate Reader (BioTek, Minneapolis, MN, USA) set to 595 nm. The minimum concentration that inhibited the formation of biofilm was defined when compared to the negative control group, as the MBIC. The minimum concentration that eradicated the biofilm was defined, when compared to the negative control group, as the MBEC. The biofilm assays were performed in triplicate.

E. faecalis (NCTC 12697) [10] = format: cell-based, Enterococcus faecalis; remark: listed apart in the source
Description: as §2

MRSA (ATCC CRM 12493) [11] = format: cell-based, methicillin-resistant S. aureus; remark: listed apart in the source
Description: as §2

E. coli (ATCC CRM 8739) [12] = format: cell-based, Escherichia coli; remark: listed apart in the source
Description: as §2

[13] = tested on: K. pneumoniae (ATCC CRM 43816); format: cell-based, Klebsiella pneumoniae; remark: listed apart in the source
Description: as §2

[14] = tested on: P. aeruginosa (ATCC CRM 9027); format: cell-based, Pseudomonas aeruginosa; remark: listed apart in the source
Description: as §2

[15] = clinical isolated strain S. aureus (B042 V2E1 A)
[16] = clinical isolated strain MRSA (B038 V1S1 A)
[17] = KPC-producing resistant strain E. coli (ATCC BAA-2340)
[18] = KPC-producing resistant strain K. pneumoniae (ATCC BAA-1705)

LFVNVLDKIR-NH2 [LF-10, LFVNVLDKIR-NH2]
>512 µM: MBC (E. faecalis (NCTC 12697) [1]; NCTC 12697) | MIC (E. faecalis (NCTC 12697) [1]; NCTC 12697) | MBC ([2]; ATCC CRM 9027) | MIC ([2]; ATCC CRM 9027) | MBC ([3]; ATCC CRM 10231) | MIC ([3]; ATCC CRM 10231) | MBC ([4]; ATCC CRM 6538) | MIC ([4]; ATCC CRM 6538) | MBC (S. aureus (B042 V2E1 A); B042 V2E1 A) | MIC (S. aureus (B042 V2E1 A); B042 V2E1 A) | MBC (MRSA (ATCC CRM 12493) [5]; ATCC CRM 12493) | MIC (MRSA (ATCC CRM 12493) [5]; ATCC CRM 12493) | MBC (MRSA (B038 V1S1 A); B038 V1S1 A) | MIC (MRSA (B038 V1S1 A); B038 V1S1 A) | MBC (E. coli (ATCC BAA-2340); ATCC BAA-2340) | MIC (E. coli (ATCC BAA-2340); ATCC BAA-2340) | MBC (E. coli (ATCC CRM 8739) [6]; ATCC CRM 8739) | MIC (E. coli (ATCC CRM 8739) [6]; ATCC CRM 8739) | MBC ([7]; ATCC BAA-1705) | MIC ([7]; ATCC BAA-1705) | MBC ([8]; ATCC CRM 43816) | MIC ([8]; ATCC CRM 43816) | MBEC ([9]; ATCC CRM 6538, 24 h) | MBIC ([9]; ATCC CRM 6538, 24 h) | MBEC (E. faecalis (NCTC 12697) [10]; NCTC 12697, 24 h) | MBIC (E. faecalis (NCTC 12697) [10]; NCTC 12697, 24 h) | MBEC (MRSA (ATCC CRM 12493) [11]; ATCC CRM 12493, 24 h) | MBIC (MRSA (ATCC CRM 12493) [11]; ATCC CRM 12493, 24 h) | MBEC (E. coli (ATCC CRM 8739) [12]; ATCC CRM 8739, 24 h) | MBIC (E. coli (ATCC CRM 8739) [12]; ATCC CRM 8739, 24 h) | MBEC ([13]; ATCC CRM 43816, 24 h) | MBIC ([13]; ATCC CRM 43816, 24 h) | MBEC ([14]; ATCC CRM 9027, 24 h) | MBIC ([14]; ATCC CRM 9027, 24 h)

VNVLDKIR-NH2 [VN-8, VNVLDKIR-NH2]
>512 µM: MBC (E. faecalis (NCTC 12697) [1]; E. faecalis (NCTC 12697)) | MIC (E. faecalis (NCTC 12697) [1]; E. faecalis (NCTC 12697)) | MBC ([2]; P. aeruginosa (ATCC CRM 9027)) | MIC ([2]; P. aeruginosa (ATCC CRM 9027)) | MBC ([3]; C. albicans (ATCC CRM 10231)) | MIC ([3]; C. albicans (ATCC CRM 10231)) | MBC ([4]; S. aureus (ATCC CRM 6538)) | MIC ([4]; S. aureus (ATCC CRM 6538)) | MBC (S. aureus (B042 V2E1 A); [15]) | MIC (S. aureus (B042 V2E1 A); [15]) | MBC (MRSA (ATCC CRM 12493) [5]; MRSA (ATCC CRM 12493)) | MIC (MRSA (ATCC CRM 12493) [5]; MRSA (ATCC CRM 12493)) | MBC (MRSA (B038 V1S1 A); [16]) | MIC (MRSA (B038 V1S1 A); [16]) | MBC (E. coli (ATCC BAA-2340); [17]) | MIC (E. coli (ATCC BAA-2340); [17]) | MBC (E. coli (ATCC CRM 8739) [6]; E. coli (ATCC CRM 8739)) | MIC (E. coli (ATCC CRM 8739) [6]; E. coli (ATCC CRM 8739)) | MBC [7, 18] | MIC [7, 18] | MBC ([8]; K. pneumoniae (ATCC CRM 43816)) | MIC ([8]; K. pneumoniae (ATCC CRM 43816)) | MBEC ([9]; biofilm eradication, S. aureus (ATCC CRM 6538)) | MBIC ([9]; biofilm formation, S. aureus (ATCC CRM 6538)) | MBEC (E. faecalis (NCTC 12697) [10]; biofilm eradication, E. faecalis (NCTC 12697)) | MBIC (E. faecalis (NCTC 12697) [10]; biofilm formation, E. faecalis (NCTC 12697)) | MBEC (MRSA (ATCC CRM 12493) [11]; biofilm eradication, MRSA (ATCC CRM 12493)) | MBIC (MRSA (ATCC CRM 12493) [11]; biofilm formation, MRSA (ATCC CRM 12493)) | MBEC (E. coli (ATCC CRM 8739) [12]; biofilm eradication, E. coli (ATCC CRM 8739)) | MBIC (E. coli (ATCC CRM 8739) [12]; biofilm formation, E. coli (ATCC CRM 8739)) | MBEC ([13]; biofilm eradication, K. pneumoniae (ATCC CRM 43816)) | MBIC ([13]; biofilm formation, K. pneumoniae (ATCC CRM 43816)) | MBEC ([14]; biofilm eradication, P. aeruginosa (ATCC CRM 9027)) | MBIC ([14]; biofilm formation, P. aeruginosa (ATCC CRM 9027))
